The values that follow are results of earlier work, collected in patent US12440530B2, “Skin solution with solubilized bakuchiol” (Envy Medical, Inc., priority 2013, dated 2025).

Molecules are shown by their SMILES.

In data set [1] the test system is facial acne vulgaris. Particulars: in vivo.

`C=C[C@@](C)(/C=C/c1ccc(O)cc1)CCC=C(C)C` [Bakuchiol, bakuchiol]: the solubility in water result was “very insoluble in water”. For the same compound, in data set [1], the “inflammatory (papules, cysts) and noninflammatory (blackheads) lesions” value was “significant reductions”; the “study subjects with partial or total clearing of acne-related post inflammatory hyperpigmentation (PIH)” value was “Forty-five”.

`CC(C)=CCC[C@](C)(O)C1CC=C(C)CC1` (stereo partly shown) [bisabolol]: the solubility in water result is reported as “very insoluble in water”.
